# Results from PubChem BioAssay (NCI).
#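 A five-concentration, 48-hour dose response in 96-well plates underlies each endpoint, interpolated linearly between surrounding concentrations. GI50 marks 50% less growth. TGI: concentration producing complete growth inhibition.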
# Assays:
# Assay in all cases: NCI-60 cell line screen, 48 h
# PC-3 prostate = test system: PC-3 prostate
# SF-268 CNS = test system: SF-268 CNS
# NCI/ADR-RES ovarian = test system: NCI/ADR-RES ovarian
# SR leukemia = test system: SR leukemia
# SF-295 CNS = test system: SF-295 CNS
# SF-539 CNS = test system: SF-539 CNS
# HCT-15 colon = test system: HCT-15 colon
# MCF7 breast = test system: MCF7 breast
# EKVX NSCLC = test system: EKVX NSCLC
# NCI-H460 lung = test system: NCI-H460 lung
# KM12 colon = test system: KM12 colon
# SN12C renal = test system: SN12C renal
# HCT-116 colon = test system: HCT-116 colon
# HL-60(TB) leukemia = test system: HL-60(TB) leukemia
# SK-MEL-2 melanoma = test system: SK-MEL-2 melanoma
# SW-620 colon = test system: SW-620 colon
# OVCAR-4 ovarian = test system: OVCAR-4 ovarian
# K-562 leukemia = test system: K-562 leukemia
# M14 melanoma = test system: M14 melanoma
# IGROV1 ovarian = test system: IGROV1 ovarian
# MDA-MB-435 = test system: MDA-MB-435
# UACC-257 melanoma = test system: UACC-257 melanoma
# NCI-H226 lung = test system: NCI-H226 lung
# 786-0 renal = test system: 786-0 renal
# A549 NSCLC = test system: A549 NSCLC
# UO-31 renal = test system: UO-31 renal
# SK-OV-3 ovarian = test system: SK-OV-3 ovarian
# DU-145 prostate = test system: DU-145 prostate
# HT29 colon = test system: HT29 colon
# HCC-2998 colon = test system: HCC-2998 colon
# MALME-3M melanoma = test system: MALME-3M melanoma
# NCI-H23 lung = test system: NCI-H23 lung
# RXF 393 renal = test system: RXF 393 renal
# CAKI-1 renal = test system: CAKI-1 renal
# SK-MEL-28 melanoma = test system: SK-MEL-28 melanoma
# OVCAR-3 ovarian = test system: OVCAR-3 ovarian
# SK-MEL-5 melanoma = test system: SK-MEL-5 melanoma
# MOLT-4 leukemia = test system: MOLT-4 leukemia
# HOP-92 NSCLC = test system: HOP-92 NSCLC
# NCI-H522 lung = test system: NCI-H522 lung
# CCRF-CEM leukemia = test system: CCRF-CEM leukemia
# MDA-MB-231 breast = test system: MDA-MB-231 breast
# OVCAR-5 ovarian = test system: OVCAR-5 ovarian
# COLO 205 colon = test system: COLO 205 colon
# U251 CNS = test system: U251 CNS
# ACHN renal = test system: ACHN renal
# OVCAR-8 ovarian = test system: OVCAR-8 ovarian
# SNB-19 CNS = test system: SNB-19 CNS
# HOP-62 NSCLC = test system: HOP-62 NSCLC
# BT-549 breast = test system: BT-549 breast
# SNB-75 CNS = test system: SNB-75 CNS
# T-47D breast = test system: T-47D breast
# A498 renal = test system: A498 renal
# HS 578T breast = test system: HS 578T breast
# TK-10 renal = test system: TK-10 renal
# UACC-62 melanoma = test system: UACC-62 melanoma
# RPMI-8226 leukemia = test system: RPMI-8226 leukemia
# LOX IMVI melanoma = test system: LOX IMVI melanoma
structure (smiles),measurement,setting,value
CC(=O)OC(C)(C)C1O[C@@]23OC1C[C@@H](C)[C@@H]2[C@@]1(C)CC[C@@]24C[C@@]25CC[C@H](OC2OCC(O)C(O)C2O)C(C)(C)[C@@H]5CCC4[C@]1(C)[C@H]3O (some centres undefined),TGI,PC-3 prostate,17.1 µM
same,TGI,SF-268 CNS,41.3 µM
same,TGI,NCI/ADR-RES ovarian,27.8 µM
same,TGI,SR leukemia,15.2 µM
same,TGI,SF-295 CNS,24.7 µM
same,TGI,SF-539 CNS,12 µM
same,TGI,HCT-15 colon,10.8 µM
same,TGI,MCF7 breast,11.9 µM
same,TGI,EKVX NSCLC,18.8 µM
same,TGI,NCI-H460 lung,32.2 µM
same,TGI,KM12 colon,13.8 µM
same,TGI,SN12C renal,10.7 µM
same,TGI,HCT-116 colon,19.1 µM
same,TGI,HL-60(TB) leukemia,5.48 µM
same,TGI,SK-MEL-2 melanoma,39 µM
same,TGI,SW-620 colon,> 100 µM
same,TGI,OVCAR-4 ovarian,23.8 µM
same,TGI,K-562 leukemia,> 93.2 µM
same,TGI,M14 melanoma,24.2 µM
same,TGI,IGROV1 ovarian,29.1 µM
same,TGI,MDA-MB-435,32.3 µM
same,TGI,UACC-257 melanoma,32.9 µM
same,TGI,NCI-H226 lung,19.5 µM
same,TGI,786-0 renal,18.9 µM
same,TGI,A549 NSCLC,21.4 µM
same,TGI,UO-31 renal,29.7 µM
same,TGI,SK-OV-3 ovarian,28.6 µM
same,TGI,DU-145 prostate,15.4 µM
same,TGI,HT29 colon,24.7 µM
same,TGI,HCC-2998 colon,25.7 µM
same,TGI,MALME-3M melanoma,42.1 µM
same,TGI,NCI-H23 lung,15.7 µM
same,TGI,RXF 393 renal,30.3 µM
same,TGI,CAKI-1 renal,20.4 µM
same,TGI,SK-MEL-28 melanoma,29.8 µM
same,TGI,OVCAR-3 ovarian,13.4 µM
same,TGI,SK-MEL-5 melanoma,23.3 µM
same,TGI,MOLT-4 leukemia,21.5 µM
same,TGI,HOP-92 NSCLC,31.6 µM
same,TGI,NCI-H522 lung,25.3 µM
same,TGI,CCRF-CEM leukemia,> 38.3 µM
same,TGI,MDA-MB-231 breast,14.8 µM
same,TGI,OVCAR-5 ovarian,31.8 µM
same,TGI,COLO 205 colon,25.1 µM
same,TGI,U251 CNS,22.1 µM
same,TGI,ACHN renal,17 µM
same,TGI,OVCAR-8 ovarian,64.8 µM
same,TGI,SNB-19 CNS,18.6 µM
same,TGI,HOP-62 NSCLC,37.7 µM
same,TGI,BT-549 breast,40.6 µM
same,TGI,SNB-75 CNS,46.5 µM
same,TGI,T-47D breast,79.4 µM
same,TGI,A498 renal,18.2 µM
same,TGI,HS 578T breast,45.6 µM
same,TGI,TK-10 renal,24.5 µM
same,TGI,UACC-62 melanoma,27.7 µM
same,TGI,RPMI-8226 leukemia,29.1 µM
same,TGI,LOX IMVI melanoma,31.4 µM
NC(=O)c1c(Br)n(C2OC(CO)C(O)C2O)c2ncnc(N)c12 (centres undefined),GI50,PC-3 prostate,0.593 µM
same,TGI,PC-3 prostate,7.57 µM
same,GI50,SF-268 CNS,2.49 µM
same,TGI,SF-268 CNS,13.4 µM
same,GI50,NCI/ADR-RES ovarian,1.34 µM
same,TGI,NCI/ADR-RES ovarian,12.5 µM
same,GI50,SR leukemia,1.11 µM
same,TGI,SR leukemia,4.9 µM
same,GI50,SF-295 CNS,2.78 µM
same,TGI,SF-295 CNS,18.7 µM
same,GI50,SF-539 CNS,2.43 µM
same,TGI,SF-539 CNS,8.73 µM
same,GI50,HCT-15 colon,0.427 µM
same,TGI,HCT-15 colon,7.03 µM
same,GI50,MCF7 breast,0.246 µM
same,TGI,MCF7 breast,2.72 µM
same,GI50,EKVX NSCLC,4.31 µM
same,TGI,EKVX NSCLC,59.8 µM
same,GI50,NCI-H460 lung,1.8 µM
same,TGI,NCI-H460 lung,12.5 µM
same,GI50,KM12 colon,1.91 µM
same,TGI,KM12 colon,12.3 µM
same,GI50,SN12C renal,1.61 µM
same,TGI,SN12C renal,12.9 µM
same,GI50,HCT-116 colon,0.71 µM
same,TGI,HCT-116 colon,> 53.4 µM
same,GI50,HL-60(TB) leukemia,0.702 µM
same,TGI,HL-60(TB) leukemia,4.11 µM
same,GI50,SK-MEL-2 melanoma,1.82 µM
same,TGI,SK-MEL-2 melanoma,5.62 µM
same,GI50,SW-620 colon,0.545 µM
same,TGI,SW-620 colon,9.87 µM
same,GI50,OVCAR-4 ovarian,1.14 µM
same,TGI,OVCAR-4 ovarian,15.3 µM
same,GI50,K-562 leukemia,1.43 µM
same,TGI,K-562 leukemia,> 60.4 µM
same,GI50,M14 melanoma,1.19 µM
same,TGI,M14 melanoma,8.76 µM
same,GI50,IGROV1 ovarian,0.609 µM
same,TGI,IGROV1 ovarian,3.95 µM
same,GI50,MDA-MB-435,1.73 µM
same,TGI,MDA-MB-435,7.68 µM
same,GI50,UACC-257 melanoma,2.99 µM
same,TGI,UACC-257 melanoma,18.4 µM
same,GI50,NCI-H226 lung,4.78 µM
same,TGI,NCI-H226 lung,57.6 µM
same,GI50,786-0 renal,3.04 µM
same,TGI,786-0 renal,41.9 µM
same,GI50,A549 NSCLC,1.97 µM
same,TGI,A549 NSCLC,21.4 µM
same,GI50,UO-31 renal,2.16 µM
same,TGI,UO-31 renal,13.6 µM
same,GI50,SK-OV-3 ovarian,1.05 µM
same,TGI,SK-OV-3 ovarian,9.95 µM
same,GI50,DU-145 prostate,0.544 µM
same,TGI,DU-145 prostate,8.86 µM
same,GI50,HT29 colon,1.03 µM
same,TGI,HT29 colon,32 µM
same,GI50,HCC-2998 colon,1.71 µM
same,TGI,HCC-2998 colon,13.2 µM
same,GI50,MALME-3M melanoma,1.47 µM
same,TGI,MALME-3M melanoma,6.34 µM
same,GI50,NCI-H23 lung,2.15 µM
same,TGI,NCI-H23 lung,13 µM
same,GI50,RXF 393 renal,1.37 µM
same,TGI,RXF 393 renal,12.9 µM
same,GI50,CAKI-1 renal,0.369 µM
same,TGI,CAKI-1 renal,2.43 µM
same,GI50,SK-MEL-28 melanoma,3.02 µM
same,TGI,SK-MEL-28 melanoma,13.8 µM
same,GI50,OVCAR-3 ovarian,1.24 µM
same,TGI,OVCAR-3 ovarian,5.59 µM
same,GI50,SK-MEL-5 melanoma,2.65 µM
same,TGI,SK-MEL-5 melanoma,9.85 µM
same,GI50,MOLT-4 leukemia,0.36 µM
same,TGI,MOLT-4 leukemia,3.46 µM
same,GI50,HOP-92 NSCLC,0.45 µM
same,TGI,HOP-92 NSCLC,7.08 µM
same,GI50,NCI-H522 lung,2.54 µM
same,TGI,NCI-H522 lung,11 µM
same,GI50,CCRF-CEM leukemia,0.8 µM
same,TGI,CCRF-CEM leukemia,6.37 µM
same,GI50,MDA-MB-231 breast,3.55 µM
same,TGI,MDA-MB-231 breast,29.1 µM
same,GI50,OVCAR-5 ovarian,1.39 µM
same,TGI,OVCAR-5 ovarian,45.5 µM
same,GI50,COLO 205 colon,1.45 µM
same,TGI,COLO 205 colon,6.07 µM
same,GI50,U251 CNS,2.92 µM
same,TGI,U251 CNS,> 86.4 µM
same,GI50,ACHN renal,0.749 µM
same,TGI,ACHN renal,10.4 µM
same,GI50,OVCAR-8 ovarian,0.763 µM
same,TGI,OVCAR-8 ovarian,12.3 µM
same,GI50,SNB-19 CNS,5.16 µM
same,TGI,SNB-19 CNS,59.8 µM
same,GI50,HOP-62 NSCLC,2.86 µM
same,TGI,HOP-62 NSCLC,25.3 µM
same,GI50,BT-549 breast,1.08 µM
same,TGI,BT-549 breast,11.2 µM
same,GI50,SNB-75 CNS,1.92 µM
same,TGI,SNB-75 CNS,18 µM
same,GI50,T-47D breast,0.132 µM
same,TGI,T-47D breast,2.88 µM
same,GI50,A498 renal,3.09 µM
same,TGI,A498 renal,15.6 µM
same,GI50,HS 578T breast,1.48 µM
same,TGI,HS 578T breast,9.36 µM
same,GI50,TK-10 renal,0.839 µM
same,TGI,TK-10 renal,13.7 µM
same,GI50,UACC-62 melanoma,1.63 µM
same,TGI,UACC-62 melanoma,3.83 µM
same,GI50,RPMI-8226 leukemia,1.87 µM
same,TGI,RPMI-8226 leukemia,7.51 µM
same,GI50,LOX IMVI melanoma,0.684 µM
same,TGI,LOX IMVI melanoma,6.09 µM
